Drug susceptibility and MIC data for three molecules are collected here from US20140349320A1, “Using Adaptive Immunity to Detect Drug Resistance” (The Trustees of the University of Pennsylvania, priority 2011, published 2014).

Experiment [1] relates to MTB strains (Beijing family, wild-type parent and rpoB H445D rifampicin-resistant isolate). The class given is cell-based, Mycobacterium tuberculosis.
Experiment [2] deals with MTB strains (Haarlem family, wild-type parent and rpoB S450L rifampicin-resistant isolate). The class given is cell-based, Mycobacterium tuberculosis.

Regarding `CC[C@@H](CO)NCCN[C@@H](CC)CO` [ethambutol], the drug susceptibility result in experiment [1] and in experiment [2] was “susceptible” in each case.

Consider `NNC(=O)c1ccncc1` [isoniazid], for which, in experiment [1], the minimal inhibitory concentration (MIC) (usually the least concentration at which growth counts as inhibited) was under 0.2 µg/mL and the drug susceptibility entry is given as “susceptible”. Moreover, in experiment [2], the drug susceptibility result is reported as “susceptible”.

`NC(=O)c1cnccn1` [pyrazinamide]: the drug susceptibility result in experiment [1] and in experiment [2] was “susceptible” in each case.
